Assay results published in PMC7259758 (PLoS ONE, 2020).
pEC50, pIC50: −log10 of the molar value.

Key:
[1] = tested on: phosphorylation of SF3B1; assay: Western blot of nuclear extracts, phosphor-SF3B1; conditions: HCT116 and Rh18 cells, 4 h; SD6 10 μM, compound 1 10 μM, compound 2 5 μM
[2] = tested on: triple-exon skipping of MDM2 pre-mRNA in SK-MEL-2/Luc-MDM2 cells; assay: TESLR (Triple Exon Skipping Luciferase Reporter) dose response; conditions: Homo sapiens, SK-MEL-2, 4 h, read-out: TESLR EC50
[3] = tested on: MDM2 pre-mRNA splicing in Rh18 cells; assay: RT-PCR confirmation of splicing changes, MDM2; format: cell-based; conditions: 4 h, SD6 10 μM, compound 1 10 μM, compound 2 5 μM, compound 3 10 μM
Experimental: (§1) RH-18 cells were cultured in RPMI 1640 medium containing 10% FCS. Cells are all maintained in humidified incubator with 5% CO2 at 37°C. Rh18 cells were exposed to 0.5% DMSO or SD6 10 μM, Cpd1 10 μM, Cpd2 5 μM or Cpd3 10 μM for 4 h. Total RNA was extracted and converted to cDNA. PCR was performed using NEB Q5 Master Mix and specific primers listed below (Table 2) according to the manufacturer’s instruction and standard PCR protocols: 50 ng cDNA and 30 μl of the final reaction volume was used. PCR products were subjected to 3% agarose gel electrophoresis.
(§2) AS patterns were identified with compound treatment for MDM2 and RBM39 transcripts. Ubiquitin (UBQ) transcripts were used as a control since these are not spliced. […] Rh18 cells were treated with either DMSO control or compounds for 4 h. Total RNA was extracted and converted to cDNA. PCR was performed using corresponding primers and PCR products were subjected to 3% agarose gel electrophoresis.

[4] = target: T1, PAK4 (h) (Homo sapiens, UniProt O96013); assay: Radiometric protein kinase assay (Eurofins); format: biochemical; conditions: 40 min; ATP 10 μM; read-out: PAK4 IC50
T1 construct: purchased Eurofins, Dundee, Scotland
T1 sequence (O96013 whole entry): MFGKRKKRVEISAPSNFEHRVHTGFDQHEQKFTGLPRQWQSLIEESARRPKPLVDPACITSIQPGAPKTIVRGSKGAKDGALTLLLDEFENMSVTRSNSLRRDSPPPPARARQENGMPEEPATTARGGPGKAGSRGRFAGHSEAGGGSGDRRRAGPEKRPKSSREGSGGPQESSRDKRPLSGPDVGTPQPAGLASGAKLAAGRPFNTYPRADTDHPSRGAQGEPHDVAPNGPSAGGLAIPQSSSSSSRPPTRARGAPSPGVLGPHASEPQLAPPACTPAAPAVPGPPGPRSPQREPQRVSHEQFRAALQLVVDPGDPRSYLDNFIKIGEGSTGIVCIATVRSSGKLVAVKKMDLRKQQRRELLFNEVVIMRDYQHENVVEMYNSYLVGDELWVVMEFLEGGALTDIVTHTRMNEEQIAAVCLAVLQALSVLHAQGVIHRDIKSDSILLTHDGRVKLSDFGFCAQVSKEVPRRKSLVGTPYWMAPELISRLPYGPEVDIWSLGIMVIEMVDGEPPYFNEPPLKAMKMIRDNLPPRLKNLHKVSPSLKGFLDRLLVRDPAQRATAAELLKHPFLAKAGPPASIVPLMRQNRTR

[5] = target: T2, SF3B1 (Homo sapiens, UniProt O75533+Q7RTV0); assay: Competitive antagonist assay (TESLR in the presence of SD6 or hit compound); format: cell-based; conditions: 6 μM compound for one hour, then serial dilutions of sudemycinol C for another 4 hours
T2 construct: endogenous in cells
Experimental: SK-MEL-2/Luc-MDM2 stable cells were plated at a density of 20,000 cells/well in 96-well plates and incubated overnight at 37°C in 5% CO2.[27, 28] The following day, cells were treated with 14 analogs using serial dilution for one hour. The list of compounds screened as potential TESLR antagonists are show in SI file. After one-hour pre-treatment, 4 μM of SD6 were added to the pre-treated cells for another 4 hours. Either 0.5% DMSO or serial dilutions of SD6 were used to treat cells for 4 hours as controls. At the end of incubation time, ONE-Glo™ EX reagents (Promega) were added to measure the luciferase activity. […]
Fig 6 Competitive antagonist assay. (Left Panel) The assay that identified two antagonists of SD6 activity in the TESLR screen, which are useful for the determination of SF3B1 binding. Relative luminescent units were plotted against corresponding drug concentrations and fitted with a standard four parameter sigmoidal curve with GraphPad Prism. (Right Panel) The structures of the antagonists and SD6. See SI for chemistry details.
. SK-MEL-2/Luc-MDM2 stable cells were plated at a density of 20000/well in 96-well plates and incubated overnight at 37°C in 5% CO2. […]. After one-hour pre-treatment, serial dilutions of the sudemycinol C were added to the pre-treated cells for another 4 hours. […]. At the end of incubation time, ONE-Glo™ EX reagents (Promega) were added to measure the luciferase activity. […]. DR: dose response.

[6] = target: T3, PYK2 (h) (Homo sapiens, UniProt Q14289); assay: Radiometric protein kinase assay (Eurofins); format: biochemical; conditions: 40 min; ATP 90 μM; read-out: PYK2 IC50
T3 construct: purchased Eurofins, Dundee, Scotland
T3 sequence (Q14289 whole entry): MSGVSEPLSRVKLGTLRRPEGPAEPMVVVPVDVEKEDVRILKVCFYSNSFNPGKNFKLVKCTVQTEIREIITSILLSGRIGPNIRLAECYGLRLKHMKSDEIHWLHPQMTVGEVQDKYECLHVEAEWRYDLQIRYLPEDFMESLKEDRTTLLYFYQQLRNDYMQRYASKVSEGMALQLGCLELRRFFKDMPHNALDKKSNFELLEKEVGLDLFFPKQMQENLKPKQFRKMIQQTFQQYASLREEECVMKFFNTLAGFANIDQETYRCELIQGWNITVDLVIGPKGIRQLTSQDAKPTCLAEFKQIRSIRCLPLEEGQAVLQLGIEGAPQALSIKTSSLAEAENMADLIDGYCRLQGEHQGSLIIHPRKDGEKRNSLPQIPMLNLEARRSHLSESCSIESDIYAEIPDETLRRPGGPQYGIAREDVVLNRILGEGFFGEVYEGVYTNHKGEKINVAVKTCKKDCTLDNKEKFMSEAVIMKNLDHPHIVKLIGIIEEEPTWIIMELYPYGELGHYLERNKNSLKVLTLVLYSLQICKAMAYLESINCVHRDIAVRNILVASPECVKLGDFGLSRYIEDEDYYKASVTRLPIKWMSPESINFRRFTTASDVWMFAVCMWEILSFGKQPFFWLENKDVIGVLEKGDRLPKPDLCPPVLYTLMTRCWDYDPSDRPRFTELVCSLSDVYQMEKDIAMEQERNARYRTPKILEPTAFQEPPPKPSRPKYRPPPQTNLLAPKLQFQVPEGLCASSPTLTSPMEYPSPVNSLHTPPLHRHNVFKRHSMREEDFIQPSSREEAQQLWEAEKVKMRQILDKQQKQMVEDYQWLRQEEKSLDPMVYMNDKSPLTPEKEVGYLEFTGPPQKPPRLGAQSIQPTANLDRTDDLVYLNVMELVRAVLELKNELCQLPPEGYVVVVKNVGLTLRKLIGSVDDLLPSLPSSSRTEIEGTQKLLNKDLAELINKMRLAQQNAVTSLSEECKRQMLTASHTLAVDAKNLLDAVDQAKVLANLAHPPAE

[7] = target: T4, GSK3β(h) (Homo sapiens, UniProt P49841); assay: Radiometric protein kinase assay (Eurofins); format: biochemical; conditions: 40 min; ATP 15 μM; read-out: GSK3β(h) IC50
T4 construct: purchased Eurofins, Dundee, Scotland
T4 sequence (P49841 whole entry): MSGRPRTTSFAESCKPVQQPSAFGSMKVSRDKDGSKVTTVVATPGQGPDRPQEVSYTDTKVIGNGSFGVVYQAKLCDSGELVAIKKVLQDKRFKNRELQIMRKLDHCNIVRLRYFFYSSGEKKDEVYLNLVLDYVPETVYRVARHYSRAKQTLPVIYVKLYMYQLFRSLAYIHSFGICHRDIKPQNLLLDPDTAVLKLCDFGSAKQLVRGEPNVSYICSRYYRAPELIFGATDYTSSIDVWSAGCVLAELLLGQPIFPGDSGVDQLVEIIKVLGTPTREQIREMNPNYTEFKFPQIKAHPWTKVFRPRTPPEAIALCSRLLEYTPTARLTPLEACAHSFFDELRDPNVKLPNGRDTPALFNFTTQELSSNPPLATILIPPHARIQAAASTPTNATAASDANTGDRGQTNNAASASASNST

[8] = tested on: RBM39 pre-mRNA splicing in Rh18 cells; assay: RT-PCR confirmation of splicing changes, RBM39; format: cell-based; conditions: 4 h, compound 1 10 μM, compound 2 5 μM
Experimental: as §1, §2

[9] = tested on: PAK4; conditions: read-out: PAK4 IC50 (previously reported designated target data); cited from earlier work

| pEC50 [2] | inhibition at 1 µM [4] | Antagonism of the compound's TESLR activity by sudemycinol C [5] | inhibition at 1 µM [6] | inhibition at 1 µM [7] | Structure (SMILES) | Effect on phosphorylation of SF3B1 (immunoblot) [1] | MDM2 alternative splicing (AS) pattern by RT-PCR [3] | RBM39 alternative splicing (AS) pattern by RT-PCR [8] | pIC50 [9] |
| --- | --- | --- | --- | --- | --- | --- | --- | --- | --- |
| 5.04 | < 50% | did not antagonize | < 50% | < 50% | CNC(=O)c1nn(C)c2c1C(C)(C)Cc1cnc(Nc3ccc(N4CCN(C)CC4)cc3)nc1-2 [Compound 1, milciclib] | reduced phosphorylation of both SR and SF3B1 proteins significantly | AS isoform of 785 bp was dominant | transcript at 673 bp showing the greatest abundance | – |
| 5.46 | – | did not antagonize | < 50% | < 50% | Cc1nc(Nc2[nH]nc3c2CN(C(=O)N[C@H](CN(C)C)c2ccccc2)C3(C)C)c2sccc2n1 [Compound 2, PF-3758309] | reduced phosphorylation of both SR and SF3B1 proteins significantly | AS isoform of 785 bp was dominant | transcript at 673 bp showing the greatest abundance | […] |
